From patent US20100048705A1, “METHODS OF TREATING AND PREVENTING NEOVASCULARIZATION WITH OMEGA-3 POLYUNSATURATED FATTY ACIDS” (CHILDREN'S MEDICAL CENTER CORPORATION, priority 2006, published 2010)
“Also recorded” adds a separate entry of the source.

Legend:
[1] = tested on: mice with oxygen-induced retinopathy; test: Oxygen-induced retinopathy model: vaso-obliteration and retinal neovascularization at P17; assay type: in vivo, mouse; conditions: for decrease in vessel loss (VO) compared to vehicle control / decrease in neovascularization (Tufts) compared to vehicle-treated mice: 10 ng i.p. daily P6-P17, read at P17; for decrease in vessel loss (VO) compared to vehicle control / protection from vaso-obliteration compared to saline-injected controls: FIG. 7a; for decrease in neovascularization (Tufts) compared to vehicle-treated mice / neovascularization at P17 compared to saline controls: FIG. 7b; for neovascularization at P17 compared to saline controls / protection from vaso-obliteration compared to saline-injected controls: 10 ng/day i.p. P6-P17
From the text: Retinopathy is modeled in the mouse eye with oxygen-induced vessel loss which precipitates hypoxia-induced retinopathy^1. One-week-old C57BL/6J mice are exposed to 75% oxygen for 5 days and then to room air. A fluorescein-dextran perfusion method is used to assess the vascular pattern. The proliferative neovascular response is quantified by counting the nuclei of new vessels extending from the retina into the vitreous in 6 microns sagittal cross-sections. Cross-sections are also stained for glial fibrillary acidic protein (GFAP). Fluorescein-dextran angiography delineates the entire vascular pattern, including neovascular tufts in flat-mounted retinas. Hyperoxia-induced neovascularization occurs at the junction between the vascularized and avascular retina in the mid-periphery. Retinal neovascularization occurs in all the pups between postnatal day 17 and postnatal day 21. This serves as a reproducible and quantifiable mouse model of oxygen-induced retinal neovascularization for the study of pathogenesis of retinal neovascularization as well as for the study of medical intervention for ROP and other retinal angiopathies in humans. This model allows assessment of retinal vessel loss, vessel re-growth after injury and pathological angiogenesis^1.
Litters of mice were subjected to the oxygen induced retinopathy model. Briefly, mice (pups with mothers) on normal chow were placed in 75% oxygen at postnatal day 7, and kept at 75% oxygen for five days. Mice were then returned to room air. During this room air phase (P12-P17) the retina becomes hypoxic due to the vessel regression that occurred while mice were in hyperoxia. Here mice were given either an omega-3 or omega-6 LCPUFA diet. At p12 (once out of oxygen, after vessel loss) or at P15 (a few days later as retinopathy was setting in).
Animals. These studies adhered to the ARVO Statement for the Use of Animals in Ophthalmic and Vision Research. Fat-1 transgenic mice contain a humanized fat-1 cDNA driven by the cytomegalovirus enhancer and a chicken β-actin promoter^9. Fat-1 and control dams were fed a defined diet with elevated omega-6 polyunsaturated fatty acids. For diet studies C57Bl/6 mothers at delivery (unless otherwise indicated for FIG. 12) were fed a defined rodent diet with 10% (w/w) safflower oil containing 2% omega-6 polyunsaturated fatty acids (AA) and no omega-3 polyunsaturated fatty acids or the same defined diet except for 2% omega-3 polyunsaturated fatty acids (DHA and EPA) and no omega-6 polyunsaturated fatty acids (AA). (Table 1) Diets were stable over time and with oxygen exposure (Table 2), unless otherwise indicated.
(§1) O2-induced retinopathy (vessel degeneration, re-growth and pathological neovascularization). To induce vessel loss, postnatal day 7 (P7) mice with their nursing mother were exposed to 75% oxygen for times ranging from 24 hours to 5 days^1. To evaluate vaso-obliteration following 24 hours of oxygen exposure, P8 mice were anesthetized at with Avertin (Sigma) and perfused with 50 μl of 120 mg/ml FITC-dextran (2×10^6 molecular weight, FD2000S-5G, Sigma) in saline through the left ventricle^21. Eyes were enucleated and fixed in 4% paraformaldehyde for 2 h at 4° C. Retinas were isolated and whole-mounted with SlowFade Antifade reagent (S2828, Molecular Probes) onto polylysin-coated slides with the photoreceptor side up. Retinas were examined with a fluorescence microscope (Olympus, Tokyo), digitized images using a three-charge-coupled device color video camera (DX-950P, Sony), and processed with NORTHERN ECLIPSE software (Empix Imaging, Toronto). Retinal neovascularization was evaluated 5 days after oxygen exposure (P7-P12) at P17 when the neovascular response is greatest. P17 mice were given a lethal dose of Avertin (Sigma) and their eyes were enucleated and fixed in 4% paraformaldehyde for 2 h at 4° C. […]

[2] = tested on: mice exposed to 75% oxygen; test: Oxygen-induced vessel loss (vaso-obliteration) at P8 after 24 hours of 75% oxygen; assay type: in vivo, mouse; conditions: 10 ng i.p. P5-P8; FIG. 7c
Experimental: as §1, with “greatest.” for “greatest. P17 mice were given a lethal dose of Avertin (Sigma) and their eyes were enucleated and fixed in 4% paraformaldehyde for 2 h at 4° C.”
Quantification of vaso-obliteration and retinal neovascularization. […] Vaso-obliteration and neovascular tuft formation were quantified by comparing the number of pixels in the affected areas with the total number of pixels in the retina. […]
Resolvins and Neurorotectins. […] Retinas collected at P17 from omega-6 or omega-3 polyunsaturated fatty acid fed dams and exposed to high oxygen or room air conditions were analyzed to determine lipid mediator profiles. Polyunsaturated fatty acid derived products were extracted, identified, and quantified using a deuterium-labelled internal standard and MS-MS based mediator informatics^23. […] Following retinal staining and whole-mounting, neovascularization and vaso-obliteration were quantified at P17. Vaso-obliteration was also assessed at P8 (after 24 hours of 75% oxygen exposure) in pups given 10 ng of RvD1 (n=7), RvE1 (n=9), NPD1 (n=7), or saline/EtOH vehicle injections (n=6) i.p. from P5-P8. […]

TNF-α = conditions: literature refs 14, 15, 16; cited from earlier work

Molecule | decrease in vessel loss (VO) compared to vehicle control [1] [%] | decrease in neovascularization (Tufts) compared to vehicle-treated mice [1] [%] | neovascularization at P17 compared to saline controls [1] | protection from vaso-obliteration compared to saline-injected controls ([1]; P17) | oxygen-induced vessel loss at P8 versus saline-injected control [2] | TNF-α mRNA expression levels in inflammatory models (TNF-α) | vaso-obliteration versus fellow saline-injected eye ([1]; intraocular (intravitreous) 12.5 μg at P12, omega-6 fed mice, P17, FIG. 11a) | retinal neovascularization versus fellow saline-injected eye ([1]; intraocular (intravitreous) 12.5 μg at P12, omega-6 fed mice, P17, FIG. 11b) | vaso-obliteration (vessel loss) versus saline injected controls ([1]; intraperitoneal, 500 μg/mouse at P7, P12, P14, P16, omega-6 fed mice, P17, FIG. 10a) | pathologic neovascularization versus saline injected controls ([1]; intraperitoneal, 500 μg/mouse at P7, P12, P14, P16, omega-6 fed mice, P17, FIG. 10b)
CC/C=C\C[C@H](O)\C=C/C=C/C=C/[C@H](O)C/C=C\C/C=C\CCC(=O)O [NPD1, 10R,17S dihydroxy-docosa-4Z,7Z,11E,13E,15Z,19z-hexaneoic acid] | 40 | 30 | less neovascularization | significant protection | No apparent differences; also recorded: no protective action | significantly reduce | – | – | – | –
CC/C=C\C[C@H](O)/C=C/C=C\C=C\C=C\[C@@H](O)[C@@H](O)C/C=C\CCC(=O)O [RvD1, 7S,8R,17S-trihydroxy-docosa-4Z,9E,11E,13Z,15E,19Z-hexaenoic acid] | 40 | 30 | less neovascularization | significant protection | No apparent differences | significantly reduce | – | – | – | –
CC[C@@H](O)/C=C/C=C\C[C@@H](O)/C=C/C=C/C=C\[C@@H](O)CCCC(=O)O [RvE1, 5S,12R,18R-trihydroxy-6Z,8E,10E,14Z,16E-eicosapentaenoic acid] | 40 | 30 | less neovascularization | significant protection | No apparent differences; also recorded: no protective action | significantly reduce | – | – | – | –
etanercept [reference compound] | – | – | – | – | – | – | significantly reduce | suppressed; also recorded: significantly improved | significantly protected; also recorded: significant reduction | significantly protected; also recorded: significant reduction
